Assay results published in paper PMC10578308, “Design of Synthetic Surrogates for the Macrolactone Linker Motif in Coibamide A” (ACS Medicinal Chemistry Letters, 2023).
Positions of bridges follow the written chain, without caps; N, C: chain ends. Non-standard residues stand in square brackets, D forms with d. Residues, ends and D or L forms follow the SMILES beside them. *: point of attachment. NMe2Val = CC(C)[C@@H](C(=O)*)N(C)C; NMeI = CC[C@H](C)[C@H](NC)C(=O)O; NMeT = CN[C@H](C(=O)O)[C@@H](C)O; NMeL = CN[C@@H](CC(C)C)C(=O)O; NMeDap = CN[C@@H](CN)C(=O)O; dHiv = CC(C)[C@@H](O)C(=O)O; NMeS = CN[C@@H](CO)C(=O)O; NMeA = CN[C@@H](C)C(=O)O; dNMeA = CN[C@H](C)C(=O)O

What was measured:
[1] = target: GLuc secretion (model Sec61 substrate) from U87-MG-GLuc cells (Homo sapiens, UniProt P61619); assay: Gaussia luciferase (GLuc) secretory assay; assay type: cell-based; conditions: 18-h incubation, n = 3, read-out: IC50 (50% inhibition of GLuc expression)
GLuc secretion (model Sec61 substrate) from U87-MG-GLuc cells, sequence (P61619 whole entry): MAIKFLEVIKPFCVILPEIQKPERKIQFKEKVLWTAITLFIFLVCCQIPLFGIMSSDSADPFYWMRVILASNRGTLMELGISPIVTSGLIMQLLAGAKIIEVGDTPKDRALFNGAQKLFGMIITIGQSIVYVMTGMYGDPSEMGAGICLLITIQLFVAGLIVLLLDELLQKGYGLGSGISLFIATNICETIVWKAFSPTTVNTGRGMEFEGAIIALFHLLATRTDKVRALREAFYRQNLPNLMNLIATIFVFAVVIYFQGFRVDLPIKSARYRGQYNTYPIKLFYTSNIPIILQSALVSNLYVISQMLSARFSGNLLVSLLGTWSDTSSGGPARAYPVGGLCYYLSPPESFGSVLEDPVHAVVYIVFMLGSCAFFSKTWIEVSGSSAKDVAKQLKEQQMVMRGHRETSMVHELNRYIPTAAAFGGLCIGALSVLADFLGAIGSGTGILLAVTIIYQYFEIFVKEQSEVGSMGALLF
Description: To investigate the mechanistic basis for cytotoxicity, all CbA derivatives were evaluated for their ability to inhibit expression of a model Sec61 substrate using U87-MG cells engineered to express a naturally secreted reporter protein, Gaussia luciferase (GLuc) (Tables 1 and 2). For these studies, U87-MG-GLuc cells were exposed to increasing concentrations of each peptide, or vehicle, for 18 h, and the cell culture medium was assayed for the presence of GLuc. […]
Gaussia Luciferase (GLuc) Secretory Assay
The generation of U87-MG cells expressing the secreted reporter Gaussia luciferase (GLuc) has been described previously.S5,S6 U87-MG-GLuc cells were cultured in Minimum Essential Medium (MEM) with Earl’s salts and L-glutamine (Corning Life Sciences), supplemented with 10% fetal bovine serum […]
(FBS; Hyclone, Logan, UT) and 100 U/mL penicillin and […] streptomycin (1% penicillin/streptomycin). All cells were grown under standard conditions and maintained at 37 °C in an atmosphere of 5% CO2. For analysis of biological activity, cells were seeded at 3,000 cells/well into 96-well plates and allowed to attach overnight. On the day of the experiment, all cells were treated at the same time with the test compound or vehicle (0.1% DMSO) and plates returned to the cell culture

[2] = system: HCT116 colon cancer cells; assay: CellTiter-Glo viability assay, HCT116 cells; assay type: cell-based, human; conditions: 50% viability after 72-hr incubation, n = 3
Description: (§1) Viability Assays Using U87 MG Cells, HCT116 Cells and normal human dermal fibroblasts.
(§2) Human U87-MG glioblastoma, HCT116 colon cancer cells and normal human dermal fibroblasts were from American Type Culture Collection (ATCC, Manasses, VA). […]
[…] streptomycin (1% penicillin/streptomycin). HCT116 cells were cultured in McCoy’s 5A medium supplemented with 10% FBS and 1% penicillin/streptomycin. […]
(§3) (#PCS-201-041) from ATCC. All cells were grown under standard conditions and maintained at 37 °C in an atmosphere of 5% CO2. For analysis of biological activity, cells were seeded at 3,000 cells/well into 96-well plates and allowed to attach overnight. On the day of the experiment, all cells were treated at the same time with the test compound or vehicle (0.1% DMSO) and plates returned to the cell culture incubator for 72 h. The viability of cells was measured at 72 h using a CellTiter-Glo® Luminescent Cell Viability Assay (Promega Corp) and luminescent signals measured using a multi-mode microplate reader (Biotek Synergy HT). Concentration-response relationships were analyzed using GraphPad Prism Software version 9.5.1 (GraphPad Software, Inc., San Diego, CA), and CC50 values derived using nonlinear regression analysis fit to a logistic equation. […]

[3] = system: normal human dermal fibroblasts (HDFs); assay: CellTiter-Glo viability assay, normal human dermal fibroblasts; assay type: cell-based; conditions: 50% viability after 72-hr incubation, n = 3, read-out: HDF CC50
Description: as §1, §2
as §3, with “Human dermal fibroblasts were cultured in Fibroblast Basal Medium (#PCS-201-030) supplemented with Fibroblast Growth Kit (#PCS-201-041)” for “(#PCS-201-041)”

[4] = system: U87-MG glioblastoma cells; assay: CellTiter-Glo viability assay, U87-MG cells; assay type: cell-based, human; conditions: 50% viability after 72-hr incubation, n = 3
Description: as §1
Human U87-MG glioblastoma, HCT116 colon cancer cells and normal human dermal fibroblasts were from American Type Culture Collection (ATCC, Manasses, VA). U87-MG cells were cultured in Minimum Essential Medium (MEM) with Earl’s salts and L-glutamine (Corning Life Sciences), supplemented with 10% fetal bovine serum (FBS; Hyclone, Logan, UT) and 100 U/mL penicillin and […] streptomycin (1% penicillin/streptomycin). HCT116 cells were cultured in McCoy’s 5A medium supplemented with 10% FBS and 1% penicillin/streptomycin. […]
as §3

[5] = system: human A549 lung cancer cells; assay: MTS antiproliferative/cell viability assay in A549 cells; assay type: cell-based; conditions: for CC50: human A549 lung cancer cells, MTS, 72 h, n = 3, read-out: CC50 (concentration for a 50% decrease in viability)
Description: Next, we synthesized CbA derivatives 3a,b by Fmoc-based SPPS using Fmoc/Alloc protected lysine derivatives 4a,b, according to the synthetic procedure for CbA mimetics in our previous study (Scheme S2).[21] The bioactivity profile of the resulting peptides 3a,b was investigated by using a standard MTS antiproliferative/cell viability assay to assess the cytotoxic potential of CbA analogues against human A549 lung cancer cells (Table 1).
10% (v/v) fetal bovine serum at 37 °C in a 5% CO2-incubator. Viability assays using A549 cells were performed in 96-well plates (BD Falcon). A549 cells were seeded at 1000 cells/well in 90 μL of culture media, respectively, and were cultured for 24 h. Chemical compounds in DMSO were diluted 50-fold with the culture medium in advance. 30 μL of the chemical diluents were added. The final volume of DMSO in the medium was equal to 0.5% (v/v). The cells under chemical treatment were incubated for a further 72 h. The wells in the plates were washed twice with the cultured medium without phenol- […]
After 1-hour incubation with 100 μL of the medium, the cell culture in each well was supplemented with 20 μL of the MTS reagent (Promega), followed by incubation for additional 40 min. Absorbance at 490 nm of each well was measured using a Wallac 1420 ARVO SX multilabel counter (Perkin Elmer).
Three experiments were performed per condition and the averages of inhibition rates in each condition were evaluated to determine IC50 values using the GraphPad Prism software. […]

[6] = system: endogenous VEGF-A secreted from human SF-268 glioblastoma cells; assay: Detection of secreted VEGF-A by ELISA; assay type: cell-based; conditions: 24 h, Figure S5
[7] = CellTiter-Glo viability assay, normal human dermal fibroblasts; assay type: cell-based; conditions: normal human dermal fibroblasts (HDFs), 50% viability after 72-hr incubation, n = 3, read-out: HDF CC50
Description: as §1, §2
as §3, with “Human dermal fibroblasts were cultured in Fibroblast Basal Medium (#PCS-201-030) supplemented with Fibroblast Growth Kit (#PCS-201-041)” for “(#PCS-201-041)”

SMILES	IC50 [1] [nM]	CC50 [2] [nM]	CC50 [3] [nM]	CC50 [4] [nM]	CC50 [5] [nM]	fold more potent (cytotoxicity) than 1a ([5]; A549 cells, CC50 compared with 1a)	expression of endogenous secreted VEGF-A (in words) [6]	CC50 at 72 h [7] [nM]	fold more potent (cytotoxicity) than 3a ([5]; A549 cells, CC50 compared with 3a) [fold]
CC[C@H](C)[C@H]1C(=O)N[C@@H](C)C(=O)N(C)[C@@H](CC(C)C)C(=O)N[C@@H](Cc2ccc(OC)cc2)C(=O)N(C)[C@H](C)C(=O)NC[C@H](N(C)C(=O)[C@H](CC(C)C)N(C)C(=O)[C@H](C)N(C)C(=O)[C@H](OC(=O)[C@H](C(C)C)N(C)C)C(C)C)C(=O)N(C)[C@@H](C)C(=O)N1C [Peptide 17a] (NMe2Val-[dHiv][NMeA][NMeL][NMeDap][NMeA][NMeI]A[NMeL]Y(Me)[dNMeA]; lactam 4-C)	30 ± 3.9	60 ± 4	123 ± 25	48 ± 3					
CC[C@H](C)[C@H]1C(=O)N[C@@H](C)C(=O)N(C)[C@@H](CC(C)C)C(=O)N[C@@H](Cc2ccc(OC)cc2)C(=O)N(C)[C@H](C)C(=O)N[C@H](C)[C@H](N(C)C(=O)[C@H](CC(C)C)N(C)C(=O)[C@H](C)N(C)C(=O)[C@H](OC(=O)[C@H](C(C)C)N(C)C)C(C)C)C(=O)N(C)[C@@H](C)C(=O)N1C [Peptide 16a]	0.71 ± 0.09	4.5 ± 0.5	4.6 ± 1.4	3.9 ± 0.5	3.6 ± 1.4				
CC[C@H](C)[C@H]1C(=O)N[C@@H](C)C(=O)N(C)[C@@H](CC(C)C)C(=O)N[C@@H](Cc2ccc(OC)cc2)C(=O)N(C)[C@H](C)C(=O)O[C@H](C)[C@H](N(C)C(=O)[C@H](CC(C)C)N(C)C(=O)[C@H](C)N(C)C(=O)[C@H](OC(=O)[C@H](C(C)C)N(C)C)C(C)C)C(=O)N(C)[C@@H](C)C(=O)N1C [Peptide 1b, reference compound] (NMe2Val-[dHiv][NMeA][NMeL][NMeT][NMeA][NMeI]A[NMeL]Y(Me)[dNMeA]; ester 4-C)	2 ± 0.3	3.9 ± 0.5	4.6 ± 1.5	2.6 ± 0.1	3.1 ± 0.8				
CC[C@H](C)[C@H]1C(=O)N[C@@H](C)C(=O)N(C)[C@@H](CC(C)C)C(=O)N[C@@H](Cc2ccc(-c3ccccc3)cc2)C(=O)N(C)[C@H](C)C(=O)N[C@H](C)[C@H](N(C)C(=O)[C@H](CC(C)C)N(C)C(=O)[C@H](COC)N(C)C(=O)[C@H](OC(=O)[C@H](C(C)C)N(C)C)C(C)C)C(=O)N(C)[C@@H](COC)C(=O)N1C [Peptide 16c]	0.08 ± 0.03	0.8 ± 0.23	0.38 ± 0.08	0.6 ± 0.2	0.27 ± 0.1	approximately 5 fold			
CC[C@H](C)[C@H]1C(=O)N[C@@H](C)C(=O)N(C)[C@@H](CC(C)C)C(=O)N[C@@H](Cc2ccc(OC)cc2)C(=O)N(C)[C@H](C)C(=O)N(C)C[C@H](N(C)C(=O)[C@H](CC(C)C)N(C)C(=O)[C@H](C)N(C)C(=O)[C@H](OC(=O)[C@H](C(C)C)N(C)C)C(C)C)C(=O)N(C)[C@@H](C)C(=O)N1C [Peptide 17b]					6500				
CC[C@H](C)[C@H]1C(=O)N[C@@H](C)C(=O)N(C)[C@@H](CC(C)C)C(=O)N[C@@H](Cc2ccc(OC)cc2)C(=O)N(C)[C@H](C)C(=O)N[C@H](C)[C@H](N(C)C(=O)[C@H](CC(C)C)N(C)C(=O)[C@H](COC)N(C)C(=O)[C@H](OC(=O)[C@H](C(C)C)N(C)C)C(C)C)C(=O)N(C)[C@@H](COC)C(=O)N1C [Peptide 16b]	0.04 ± 0.02	3.4 ± 0.6	3.9 ± 1.5	2.2 ± 0.4	1.3 ± 0.3				
CC[C@H](C)[C@H]1C(=O)N[C@@H](C)C(=O)N(C)[C@@H](CC(C)C)C(=O)N[C@@H](Cc2ccc(OC)cc2)C(=O)N(C)[C@H](C)CC[C@H](C)[C@H](N(C)C(=O)[C@H](CC(C)C)N(C)C(=O)[C@H](C)N(C)C(=O)[C@H](OC(=O)[C@H](C(C)C)N(C)C)C(C)C)C(=O)N(C)[C@@H](C)C(=O)N1C [Peptide 3a]	18 ± 1	121 ± 23	213 ± 29	56 ± 2	41 ± 4		statistically significant and concentration-dependent decreases		
CC[C@H](C)[C@H]1C(=O)N[C@@H](C)C(=O)N(C)[C@@H](CC(C)C)C(=O)N[C@@H](Cc2ccc(OC)cc2)C(=O)N(C)[C@H](C)C(=O)O[C@H](C)[C@H](N(C)C(=O)[C@H](CC(C)C)N(C)C(=O)[C@H](COC)N(C)C(=O)[C@H](OC(=O)[C@H](C(C)C)N(C)C)C(C)C)C(=O)N(C)[C@@H](COC)C(=O)N1C [Coibamide A (1a), coibamide A] (NMe2Val-[dHiv][NMeS](Me)[NMeL][NMeT][NMeS](Me)[NMeI]A[NMeL]Y(Me)[dNMeA]; ester 4-C)	1.1 ± 0.3	2.7 ± 0.5		50 ± 6	1.5 ± 0.4			6.7 ± 2.1	
CC[C@H](C)[C@H]1C(=O)N[C@@H](C)C(=O)N(C)[C@@H](CC(C)C)C(=O)N[C@@H](Cc2ccc(OC)cc2)C(=O)N(C)[C@H](C)/C=C/[C@H](C)[C@H](N(C)C(=O)[C@H](CC(C)C)N(C)C(=O)[C@H](C)N(C)C(=O)[C@H](OC(=O)[C@H](C(C)C)N(C)C)C(C)C)C(=O)N(C)[C@@H](C)C(=O)N1C [Peptide 3b]	13 ± 2	11 ± 1	8.3 ± 2.1	6.2 ± 0.1	2.6 ± 0.4				10
